Data reported in US20090233939A1, “TREATMENT OF AMM” (priority 2002, published 2009).

Columns and labels:
[1] = tested on: patient with splenomegaly
[2] = tested on: patient having a protuberant spleen; experiment: Example 2: patient with massive protuberant spleen treated with PTK787; type: in vivo, human; conditions: 750 mg twice daily, after five days of therapy
Description: After five days of therapy, the spleen had less than 10% of its original size.

[3] = tested on: other tyrosine kinase receptors, including c-Kit, bFGF and PDGF; conditions: cited from earlier work
Flt-1 = Flt-1 (Homo sapiens, UniProt P17948); conditions: cited from earlier work
Flt-4 = Flt-4 (Homo sapiens, UniProt P35916); conditions: cited from earlier work
Chain of Flt-4 (P35916 25-1363, species assumed): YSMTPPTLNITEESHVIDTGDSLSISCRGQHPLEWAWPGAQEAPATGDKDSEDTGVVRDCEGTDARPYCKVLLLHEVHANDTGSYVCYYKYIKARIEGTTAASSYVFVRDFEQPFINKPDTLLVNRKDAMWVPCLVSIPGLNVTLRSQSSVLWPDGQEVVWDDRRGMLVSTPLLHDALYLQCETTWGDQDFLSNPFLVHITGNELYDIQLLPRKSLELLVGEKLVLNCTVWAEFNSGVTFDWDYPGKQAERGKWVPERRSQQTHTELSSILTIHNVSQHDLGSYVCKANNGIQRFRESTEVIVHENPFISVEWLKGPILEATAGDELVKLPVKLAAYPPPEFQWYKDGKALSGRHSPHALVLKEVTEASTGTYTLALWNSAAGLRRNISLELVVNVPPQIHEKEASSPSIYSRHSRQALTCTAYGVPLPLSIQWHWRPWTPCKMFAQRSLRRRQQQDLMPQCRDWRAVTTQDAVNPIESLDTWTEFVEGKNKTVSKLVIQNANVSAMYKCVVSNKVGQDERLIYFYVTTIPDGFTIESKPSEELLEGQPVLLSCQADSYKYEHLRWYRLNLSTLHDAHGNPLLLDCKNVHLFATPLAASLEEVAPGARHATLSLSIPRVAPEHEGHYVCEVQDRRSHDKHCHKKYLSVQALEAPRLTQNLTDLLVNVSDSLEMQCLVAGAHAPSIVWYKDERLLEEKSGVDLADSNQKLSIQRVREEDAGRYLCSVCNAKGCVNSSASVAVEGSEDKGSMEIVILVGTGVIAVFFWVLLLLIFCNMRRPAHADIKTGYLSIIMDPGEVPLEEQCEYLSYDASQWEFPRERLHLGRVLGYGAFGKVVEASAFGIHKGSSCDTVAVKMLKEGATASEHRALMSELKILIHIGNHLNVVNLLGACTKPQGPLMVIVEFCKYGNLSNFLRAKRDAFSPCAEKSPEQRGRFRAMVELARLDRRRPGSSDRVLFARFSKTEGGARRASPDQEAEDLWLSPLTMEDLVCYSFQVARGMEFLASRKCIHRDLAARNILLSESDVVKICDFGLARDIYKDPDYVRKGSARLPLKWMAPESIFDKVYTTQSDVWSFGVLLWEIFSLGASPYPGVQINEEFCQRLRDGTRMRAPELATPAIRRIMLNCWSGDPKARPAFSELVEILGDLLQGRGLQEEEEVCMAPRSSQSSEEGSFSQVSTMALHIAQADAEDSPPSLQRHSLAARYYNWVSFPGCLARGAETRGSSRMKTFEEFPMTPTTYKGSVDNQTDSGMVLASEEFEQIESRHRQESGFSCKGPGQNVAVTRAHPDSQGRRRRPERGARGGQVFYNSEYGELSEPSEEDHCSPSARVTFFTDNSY

Chain of Flt-1 (P17948 27-1338, species assumed): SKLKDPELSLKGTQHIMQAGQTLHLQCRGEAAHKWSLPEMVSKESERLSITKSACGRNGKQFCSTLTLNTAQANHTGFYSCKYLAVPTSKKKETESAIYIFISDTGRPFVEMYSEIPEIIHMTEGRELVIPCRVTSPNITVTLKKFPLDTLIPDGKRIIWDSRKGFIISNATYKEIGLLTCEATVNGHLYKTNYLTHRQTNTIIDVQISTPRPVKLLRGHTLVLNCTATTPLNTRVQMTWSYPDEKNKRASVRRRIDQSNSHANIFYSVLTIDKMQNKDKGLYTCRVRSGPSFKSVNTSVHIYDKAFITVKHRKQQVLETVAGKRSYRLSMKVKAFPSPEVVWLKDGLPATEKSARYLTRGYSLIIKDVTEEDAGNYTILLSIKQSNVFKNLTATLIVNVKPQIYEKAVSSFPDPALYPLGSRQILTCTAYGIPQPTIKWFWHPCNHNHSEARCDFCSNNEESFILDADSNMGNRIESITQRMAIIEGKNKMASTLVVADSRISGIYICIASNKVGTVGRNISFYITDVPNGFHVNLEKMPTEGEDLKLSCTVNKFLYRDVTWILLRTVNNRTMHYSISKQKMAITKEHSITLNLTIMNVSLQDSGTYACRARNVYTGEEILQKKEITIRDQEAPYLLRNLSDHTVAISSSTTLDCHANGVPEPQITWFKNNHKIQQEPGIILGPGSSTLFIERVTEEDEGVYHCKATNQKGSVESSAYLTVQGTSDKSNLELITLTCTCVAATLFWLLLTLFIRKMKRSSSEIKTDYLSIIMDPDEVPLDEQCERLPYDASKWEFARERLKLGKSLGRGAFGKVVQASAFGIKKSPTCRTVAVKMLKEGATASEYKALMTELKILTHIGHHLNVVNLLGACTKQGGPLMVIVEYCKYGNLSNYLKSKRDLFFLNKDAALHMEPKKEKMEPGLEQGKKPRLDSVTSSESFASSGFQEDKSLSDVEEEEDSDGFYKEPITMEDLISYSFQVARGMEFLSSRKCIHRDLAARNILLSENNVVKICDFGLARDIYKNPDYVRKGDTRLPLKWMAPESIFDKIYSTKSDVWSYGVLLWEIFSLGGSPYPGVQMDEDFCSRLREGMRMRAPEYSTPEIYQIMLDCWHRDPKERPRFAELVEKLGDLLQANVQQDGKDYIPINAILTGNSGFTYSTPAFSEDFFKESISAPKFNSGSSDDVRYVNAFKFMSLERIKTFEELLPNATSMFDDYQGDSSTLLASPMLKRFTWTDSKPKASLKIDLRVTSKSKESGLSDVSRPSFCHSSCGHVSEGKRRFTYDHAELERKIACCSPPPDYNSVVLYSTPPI

## PTK787
[1]; 750 mg twice daily, first 14 days of chemotherapy
  splenomegaly: decrease of splenomegaly
[1]; 750 mg twice daily, first 14 days, drop from 19,000
  white blood cells count: 14,000
[1]; during the interruption of therapy
  spleen during interruption of therapy: the spleen began to increase again
[2]
  spleen size: less than 10 % of its original size
[3]
  activity against other tyrosine kinase receptors: has activity
Flt-1
  inhibition of Flt-1: can also inhibit
Flt-4
  inhibition of Flt-4: can also inhibit
